{"source": "patent US20090029954A1", "about": "“PROGESTERONE-RECEPTOR ANTAGONIST FOR USE IN BRCA ALONE OR AS COMBINATION WITH ANTIESTROGEN” (priority 2007, published 2009)", "key": {"progesterone receptor [1]": {"target": "T1, progesterone receptor (Homo sapiens, UniProt P06401)", "T1 sequence (P06401 1-933)": "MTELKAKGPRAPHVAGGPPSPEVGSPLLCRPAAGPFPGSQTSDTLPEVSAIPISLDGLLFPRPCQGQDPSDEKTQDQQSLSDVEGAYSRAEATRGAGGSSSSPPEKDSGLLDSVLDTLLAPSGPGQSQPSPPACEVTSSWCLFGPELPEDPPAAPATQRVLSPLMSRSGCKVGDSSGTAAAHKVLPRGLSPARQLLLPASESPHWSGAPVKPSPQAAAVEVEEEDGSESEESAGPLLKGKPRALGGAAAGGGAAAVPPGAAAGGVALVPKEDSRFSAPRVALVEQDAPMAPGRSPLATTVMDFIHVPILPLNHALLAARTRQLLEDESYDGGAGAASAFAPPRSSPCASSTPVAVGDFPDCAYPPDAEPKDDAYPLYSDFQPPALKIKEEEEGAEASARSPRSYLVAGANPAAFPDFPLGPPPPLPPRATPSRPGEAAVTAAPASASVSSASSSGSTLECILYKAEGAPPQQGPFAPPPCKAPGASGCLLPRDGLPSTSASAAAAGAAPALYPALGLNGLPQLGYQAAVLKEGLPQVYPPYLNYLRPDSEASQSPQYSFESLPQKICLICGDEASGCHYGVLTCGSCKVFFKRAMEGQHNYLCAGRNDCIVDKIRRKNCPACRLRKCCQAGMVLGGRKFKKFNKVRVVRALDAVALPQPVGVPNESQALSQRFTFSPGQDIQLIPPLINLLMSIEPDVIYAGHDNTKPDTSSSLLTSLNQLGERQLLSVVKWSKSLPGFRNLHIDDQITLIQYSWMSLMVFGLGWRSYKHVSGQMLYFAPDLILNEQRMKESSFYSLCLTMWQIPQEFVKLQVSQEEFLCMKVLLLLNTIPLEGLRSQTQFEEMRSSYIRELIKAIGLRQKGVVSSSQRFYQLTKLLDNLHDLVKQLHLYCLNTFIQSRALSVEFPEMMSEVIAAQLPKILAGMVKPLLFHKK", "assay": "Progesterone receptor protein expression/stability after siRNA BRCA1 knock down (Example 1)", "assay_type": "cell-based", "procedure": "(§1) MCF-10 mammary cells and T47D breast cancer cells obtained from ATCC were treated with siRNA knocking down the BRCA1 and BRCA2 gene.\n(§2) Cell growth in comparison to untransfected and mock transfected cells was compared. In a second step cells were stimulated either with progesterone and/or with estrogens. […] The effects on progesteron receptor protein expression were further investigated."}, "progesterone receptor [2]": {"target": "T1, progesterone receptor", "assay": "Progesterone receptor protein expression/stability after siRNA BRCA1 knock down (Example 3)", "assay_type": "cell-based", "procedure": "(§3) MCF-10 mammary cells obtained from ATCC were treated with siRNA knocking down the BRCA1 and BRCA2 gene.\nas §2"}, "tumor cells": {"system": "tumor cells", "assay": "Apoptosis of tumor cells"}, "progesterone receptor [3]": {"target": "T1, progesterone receptor", "details": "Fuhrmann et al., J. Med. Chem. 2000; cited from earlier work"}, "progesterone receptor [4]": {"target": "T1, progesterone receptor", "assay": "Endocrine profile of the progesterone-receptor antagonist"}, "[5]": {"system": "BRCA1-, respectively BRCA2-mediated mammary carcinogenesis", "assay": "Mammary tumor formation in transgenic mice with breast-specific inactivation of p53 and BRCA1/BRCA2 (Example 2)", "assay_type": "in vivo", "details": "mice monitored weekly for tumor formation; placebo group median tumor latency 6.6 months", "text": "To address the specific roles of progesterone receptors in BRCA1- and BRCA2-mediated tumorigenesis, transgenic mice with an organ specific inactivation of p53 and BRCA1, respectively BRCA2 in the breast tissue have been studied. Inactivation of both BRCA1, respectively BRCA2 and p53 or c-myc genes in the mouse mammary gland mimics the majority of human BRCA1-associated tumors, which also harbor p53 mutations.\nBecause progesterone is a potent mitogen for BRCA1, respectively BRCA2 p53 or c-myc Crec mammary epithelial cells, it was tested whether blockade of the progesterone receptor activity by the progesterone receptor antagonist 11β-(4-acetylphenyl)-17β-hydroxy-17α-(1,1,2,2,2-pentafluoroethyl)-estra-4,9-dien-3-one could prevent or delay mammary carcinogenesis. Mice were treated with a placebo or with 11β-(4-acetylphenyl)-17β-hydroxy-17α-(1,1,2,2,2-pentafluoroethyl)-estra-4,9-dien-3-one. The mice were monitored weekly for tumor formation. The median tumor latency of was 6.6 months for the placebo control group with all mice developing palpable tumors."}, "[6]": {"system": "MCF-10 mammary cells with BRCA1 and BRCA2 knock down", "assay": "Growth of MCF-10 cells with siRNA BRCA1/BRCA2 knock down (Example 3)", "assay_type": "cell-based", "details": "co-treatment; MCF-10 siRNA knock down cells stimulated with progesterone and/or estrogens", "procedure": "as §3, §2"}, "[7]": {"system": "MCF-10 mammary cells and T47D breast cancer cells with BRCA1 and BRCA2 knock down", "assay": "Growth of breast cells with siRNA BRCA1/BRCA2 knock down (Example 1)", "assay_type": "cell-based", "procedure": "as §1, §2"}, "Bioavailability": {"assay": "Bioavailability", "assay_type": "in vivo", "details": "compared to ICI 182,780"}, "[8]": {"details": "administered orally; cited from earlier work"}, "[9]": {"system": "mammary tumors in Brca1/p53-deficient model", "details": "mice with BRCA1- or BRCA2 inactivated in mammary glands; Poole et al., Science 2006; cited from earlier work"}}, "note": "Read-outs that look alike come from different tables or passages of the source."}
{"compound": "CC(=O)c1ccc(C2C[C@@]3(C)[C@@H](CC[C@@]3(O)C(F)(F)C(F)(F)F)[C@@H]3CCC4=CC(=O)CCC4=C23)cc1", "note": "(stereo partly drawn) [11β-(4-acetylphenyl)-17β-hydroxy-17α-(1,1,2,2,2-pentafluoroethyl)-estra-4,9-dien-3-one]", "values": [{"measurement": "increased stability of progesterone receptor after BRCA1 knock down", "setting": "progesterone receptor [1]", "result": "could be antagonized"}, {"measurement": "increased stability of progesterone receptor after BRCA1 knock down", "setting": "progesterone receptor [2]", "result": "could be antagonized"}, {"measurement": "apoptosis of tumor cells", "setting": "tumor cells", "result": "increased apoptosis of tumor cells"}, {"measurement": "antiprogestagenic activity", "setting": "progesterone receptor [3]", "result": "high antiprogestagenic activity"}, {"measurement": "other endocrinological effects", "setting": "progesterone receptor [3]", "result": "little or no other endocrinological effects"}, {"measurement": "endocrine side effects (androgen, estrogen or antiglucocorticoid activity)", "setting": "progesterone receptor [4]", "result": "only very weak or no endocrine side effects"}, {"measurement": "palpable tumors", "setting": "[5]", "result": "no palpable tumors were detected"}, {"measurement": "antagonism of the effects of BRCA1 knock down (increased proliferation in the presence of progesterone)", "setting": "[6]", "result": "able to antagonize the effects of BRCA1 knock down"}, {"measurement": "inhibition of the growth of BRCA1 knock down cells", "setting": "[7]; Example 1", "result": "potent inhibition"}, {"measurement": "antagonism of the effects of BRCA1 knock down (increased proliferation in the presence of progesterone)", "setting": "[7]; co-treatment, siRNA knock down cells stimulated with progesterone and/or estrogens", "result": "able to antagonize the effects of BRCA1 knock down"}]}
{"compound": "CN(CCCCCCCC(F)(F)C(F)(F)F)CCCCCC1Cc2cc(O)ccc2C2C(F)CC3(C)C(CCC3(C)O)C12", "note": "(stereo not drawn) [11β-Fluoro-17α-methyl-7α-{5-[methyl(8,8,9,9,9-pentafluorononyl)-amino]pentyl}-estra-1,3,5(10)-triene-3,17β-diol]", "values": [{"measurement": "bioavailability", "setting": "Bioavailability", "result": "particularly high bioavailability"}]}
{"compound": "CC#C[C@]1(O)CC[C@H]2[C@@H]3CCC4=CC(=O)CCC4=C3[C@@H](c3ccc(N(C)C)cc3)C[C@@]21C", "note": "[mifepristone]", "values": [{"measurement": "bioavailability", "setting": "[8]", "result": "poor bioavailability"}, {"measurement": "development of mammary tumors", "setting": "[9]", "result": "blocks the development of mammary tumors"}]}
